13 compounds from patent US7723368B2, “Amino-5-[4-(difluoromethoxy)phenyl]-5-phenylimidazolone compounds for the inhibition of beta-secretase” (Wyeth LLC, priority 2007, dated 2010) can be followed below.

pIC50: −log10 of the molar value.

Usually pIC50 stands for the negative decadic logarithm of the IC50, by convention in mol/L. Read a high pIC50 as a small IC50.

Sequence of human BACE1 (P56817 46-501): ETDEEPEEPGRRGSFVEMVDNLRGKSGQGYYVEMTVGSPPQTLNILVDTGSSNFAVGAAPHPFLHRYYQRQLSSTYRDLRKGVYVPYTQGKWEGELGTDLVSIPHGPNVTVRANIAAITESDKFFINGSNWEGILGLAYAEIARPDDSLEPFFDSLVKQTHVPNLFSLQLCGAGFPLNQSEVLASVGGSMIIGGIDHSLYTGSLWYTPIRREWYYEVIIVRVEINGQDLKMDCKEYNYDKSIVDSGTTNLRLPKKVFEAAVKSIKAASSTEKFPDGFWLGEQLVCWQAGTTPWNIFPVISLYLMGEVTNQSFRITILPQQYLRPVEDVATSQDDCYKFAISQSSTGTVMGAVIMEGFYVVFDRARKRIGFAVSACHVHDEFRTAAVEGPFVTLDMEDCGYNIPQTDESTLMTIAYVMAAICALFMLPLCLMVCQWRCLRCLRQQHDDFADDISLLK

The target of this assay is human BACE1 (Homo sapiens, UniProt P56817). The assay can be described thus: BACE1 fluorescent kinetic assay (cleavage of peptide substrate WABC-6). The class given is biochemical. The note with it: Activity Table, Examples 1-108; 10 nM enzyme, 25 μM substrate WABC-6, pH 4.5, room temperature. How it is done:
Evaluation of BACE1 Binding Affinity of Test Compounds
Fluorescent Kinetic Assays
Dilution and mixing steps: total reaction volume: 100 μL
100 μM substrate dilution in 1×PBS was prepared, and
Fluorescence Readings: Readings at λex 320 nm and λem 420 nm are taken every 40 sec for 30 min at room temperature and the linear slope for substrate cleavage rate (vi) determined.
For the compound `C=CCCOc1cccc(C2(c3ccc(OC(F)F)cc3)N=C(N)N(C)C2=O)c1` (stereo not shown) [Example 8, 2-amino-5-[3-(but-3-en-1-yloxy)phenyl]-5-[4-(difluoromethoxy)-phenyl]-3-methyl-3,5-dihydro-4H-imidazol-4-one], the pIC50 was > 7.00.
In the case of `C=CCCOc1cc(C2(c3ccc(OC(F)F)cc3)N=C(N)N(C)C2=O)ccc1F` (stereo not shown) [Example 9, 2-amino-5-[3-(but-3-en-1-yloxy)-4-fluorophenyl]-5-[4-(difluoromethoxy)phenyl]-3-methyl-3,5-dihydro-4H-imidazol-4-one] it was > 7.00; in that of `C=CCCOc1cccc([C@@]2(c3ccc(OC(F)F)cc3)N=C(N)N(C)C2=O)c1` [Example 10A, (5R)-2-amino-5-[3-(but-3-en-1-yloxy)phenyl]-5-[4-(difluoromethoxy)phenyl]-3-methyl-3,5-dihydro-4H-imidazol-4-one], > 7.00.
Take `C=CCCOc1cccc([C@]2(c3ccc(OC(F)F)cc3)N=C(N)N(C)C2=O)c1` [Example 10B, (5S)-2-amino-5-[3-(but-3-en-1-yloxy)phenyl]-5-[4-(difluoromethoxy)phenyl]-3-methyl-3,5-dihydro-4H-imidazol-4-one]: the pIC50 is 6.00 to 6.96.
On to `C=CCCCOc1cccc([C@@]2(c3ccc(OC(F)F)cc3)N=C(N)N(C)C2=O)c1` [Example 10C, (R)-2-amino-4-(4-(difluoromethoxy)phenyl)-1-methyl-4-(3-(pent-4-enyloxy)phenyl)-1H-imidazol-5(4H)-one], for which the negative logarithm of the IC50 (pIC50) was > 7.00.
Regarding `C=CC[C@@H](C)Oc1cccc([C@@]2(c3ccc(OC(F)F)cc3)N=C(N)N(C)C2=O)c1` [Example 10D, (R)-2-amino-4-(4-(difluoromethoxy)phenyl)-1-methyl-4-(3-((R)-pent-4-en-2-yloxy)phenyl)-1H-imidazol-5(4H)-one], the pIC50 was > 7.00.
For `C=CC[C@H](C)Oc1cccc([C@@]2(c3ccc(OC(F)F)cc3)N=C(N)N(C)C2=O)c1` [Example 10E, (R)-2-amino-4-(4-(difluoromethoxy)phenyl)-1-methyl-4-(3-((S)-pent-4-en-2-yloxy)phenyl)-1H-imidazol-5(4H)-one], the pIC50 is 6.00 to 6.96.
To `C=CC(C)COc1cccc([C@@]2(c3ccc(OC(F)F)cc3)N=C(N)N(C)C2=O)c1` (stereo partly drawn) [Example 10F, (4R)-2-amino-4-(4-(difluoromethoxy)phenyl)-1-methyl-4-(3-(2-methylbut-3-enyloxy)phenyl)-1H-imidazol-5(4H)-one] belongs > 7.00; to `C=C(C)CCOc1cccc([C@@]2(c3ccc(OC(F)F)cc3)N=C(N)N(C)C2=O)c1` [Example 10G, (R)-2-amino-4-(4-(difluoromethoxy)phenyl)-1-methyl-4-(3-(3-methylbut-3-enyloxy)phenyl)-1H-imidazol-5(4H)-one], > 7.00; to `C=CCOc1cccc([C@@]2(c3ccc(OC(F)F)cc3)N=C(N)N(C)C2=O)c1` [Example 10H, (R)-4-(3-(allyloxy)phenyl)-2-amino-4-(4-(difluoromethoxy)phenyl)-1-methyl-1H-imidazol-5(4H)-one], > 7.00.
In the case of `CN1C(=O)[C@@](c2ccc(OC(F)F)cc2)(c2cccc(CCCCC#N)c2)N=C1N` [Example 11A, 5-(3-{(4R)-2-amino-4-[4-(difluoromethoxy)phenyl]-1-methyl-5-oxo-4,5-dihydro-1H-imidazol-4-yl}phenyl)pentanenitrile] it was > 7.00; in that of `CN1C(=O)[C@](c2ccc(OC(F)F)cc2)(c2cccc(CCCCC#N)c2)N=C1N` [Example 11B, 5-(3-{(4S)-2-amino-4-[4-(difluoromethoxy)phenyl]-1-methyl-5-oxo-4,5-dihydro-1H-imidazol-4-yl}phenyl)pentanenitrile], < 6.00; in that of `CN1C(=O)C(c2ccc(OC(F)F)cc2)(c2cccc(C#CCCCF)c2)N=C1N` (stereo not shown) [Example 19D, 2-amino-5-[4-(difluoromethoxy)phenyl]-5-[3-(5-fluoropent-1-yn-1-yl)phenyl]-3-methyl-3,5-dihydro-4H-imidazol-4-one], > 7.00.
